Measurements reported in patent US20070265274A1, “4-(4-METHYLPIPERAZIN-1-YLMETHYL)-N-[4-METHYL-3-(4-PYRIDIN-3-YL)PYRIMIDIN-2-YLAMINO)PHENYL]-BENZAMIDE FOR TREATING MUTATED-RET KINASE ASSOCIATED DISEASES” (priority 2002, published 2007).
Where two headings read alike, the source gives them in different places.

Key:
[1] = test system: PLCγ phosphorylation by RET/PTC; details: 250 nM SALT I for 24 h; in comparison with samples without SALT I
Protocol: To further explore the effect of SALT I on RET kinase activity, pretreatment with SALT I on PLCγ phosphorylation is examined.
Ret-PTC3 cells are seeded at 10^5 cells/well in 6-well Corning plates. After 3 days, cells are treated with or without doxycycline in the presence of 250 nM of SALT I for 24 h. Cells are rinsed twice with cold (phosphate buffered saline) PBS containing 0.1 mM sodium orthovanadate, and left for 20 minutes in ice-cold RIPA buffer shaking gently at 4° C. Cell lysates are collected by centrifugation at 10,600 g for 20 min at 4° C. Protein assays are performed on aliquots of supernatants by the Coomassie Blue assay (Pierce, Rockford, Ill.). Western blot analysis are performed by running 100 μg of protein on SDS PAGE (5%), transfer to nitrocellulose membrane and probing initially with anti-phospho PLCγ antibody (Cell Signaling) and then with anti-PLCγ (Cell Signaling) for normalization.

[2] = test system: NIH3T3 cells expressing constitutively active RET MEN2A (RETC634 mutation); details: for % of cell decrease: SALT I 500 nM, 9 days
Protocol: The RETC634 mutation is the most common germline mutation of the RET kinase occurring in 85% of multiple endocrine neoplasias type 2A. The effect of SALT I on growth of NIH3T3 cells stably expressing a constitutively active form of the RET kinase (RETC634 mutation) is investigated.
NIH3T3 cells expressing constitutively active RET MEN2A are allowed to plate overnight in 6-well plates. They are then grown in the presence of 1 or 5% serum with SALT I 500 nM or with a vehicle solvent (control) for 9 days, with media changes every 3 days. Cells are counted after harvesting with EDTA/trypsin solution on day 9 after initiation of treatments.

[3] = test system: RET/PTC3; details: 100 nM SALT I; 25 min at room temperature; γP32-ATP
Protocol: Cell Line: PCCL3, a rat thyroid cell line, is maintained in H4 complete medium consisting of Coon's medium/F12 high zinc supplemented with 5% FBS, 0.3 mg/ml L-glutamine, 1 mU/ml TSH, 10 μg/ml insulin, 5 μg/ml apo-transferrin, 10 nM hydrocortisone, and penicillin/streptomycin. […] Stable transfections are performed first to establish clonal lines constitutively expressing the transactivator rtTA (composed of a fusion of the rtetR DNA binding domain and the VP16 activation domain). Individual rtTA-expressing clones are then explored for doxycyclin-inducible expression by transient transfection with a luciferase reporter construct under control of a tet-operator.
Confluent T-75 flasks of RET/PTC3 (PCCL3) cells incubated with or without doxycycline for 24 hours are washed with ice cold PBS containing 0.2 mM sodium ortho-vanadate. […] After the second wash, the reactions are boiled in 35 μl Laemmli buffer for 10 min, the proteins are subjected to SDS-PAGE (7.5%) and their phosphorylation measured by PhosphoImager densitrometry (Molecular Dynamics, Sunnyvale, Calif.) after transfer to nitrocellulose membranes. Protein loading is then normalized to total RET kinase protein determined by Western blot analysis using either the goat polyclonal anti-RET kinase antibody (Santa Cruz) or a mouse monoclonal (University of Cincinnati).

CS(=O)(=O)O.Cc1ccc(NC(=O)c2ccc(CN3CCN(C)CC3)cc2)cc1Nc1nccc(-c2cccnc2)n1 [SALT I]
inhibition of phosphorylation of PLCγ [1]: 28%
% of cell decrease ([2]; 1% serum): 42%
% of cell decrease ([2]; 5% serum): 15%
growth of RET kinase-transformed NIH3T3 fibroblasts ([2]; result in words): inhibits the growth
inhibition of autophosphorylation of RET/PTC3 [3]: 40%
